One may read the IC50 as the point on the concentration scale where inhibition reaches its midpoint. Read a low IC50 as greater potency in that assay.

This note sets out measurements from patent publication US11104674B2 (Hoffmann-La Roche Inc., priority 2016, dated 2021).

For this assay, the system named is HBsAg. Put plainly: HBsAg assay (chemiluminescence immunoassay of secreted HBsAg). Type of assay: cell-based, HBV. The conditions noted are these: Hepatitis B virus, HepG2.2.15, HBsAg secretion, HepG2.2.15 cells, CLIA of culture supernatant. How it is done: HepG2.2.15 cells (Acs et al. Proc Natl Acad Sci USA, 84, (1987), 4641-4), a constitutively HBV-expressing cell line were cultured in DMEM+Glutamax-I medium (Invitrogen, Carlsbad, Calif., USA), supplemented with 10% fetal bovine serum (Invitrogen) and G418 (Invitrogen) at a final concentration of 200 mg/L and maintained in 5% CO2 at 37° C.
HepG2.2.15 cells were seeded in duplicate into white, 96-well plates at 1.5×10^4 cells/well. The cells were treated with a three-fold serial dilution series of the compounds in DMSO. The final DMSO concentration in all wells was 1% and DMSO was used as no drug control.
The HBsAg chemiluminescence immunoassay (CLIA) kit (Autobio Diagnostics Co., Zhengzhou, China, Catalog number: CL0310-2) was used to measure the levels of secreted HBV antigens semi-quantitatively. For the detection 50 μL/well culture supernatant was used and HBsAg was quantified using HBsAg chemiluminescence immunoassay (CLIA) kit (Autobio Diagnostics Co., Zhengzhou, China, Catalog number: CL0310-2), 50 μL of the supernatant was transferred to the CLIA assay plate and 50 μL of enzyme conjugate reagent was added into each well. The plates were sealed and gently agitated for 1 hour at room temperature. The supernatant-enzyme-mixture was discarded and wells were washed 6 times with 300 μL of PBS.
The residual liquid was removed by plating the CLIA plate right side down on absorbent tissue paper. 25 μL of substrates A and B were added to each well. Luminance was measured using a luminometer (Mithras LB 940 Multimode Microplate Reader) after 10 minutes incubation. Dose-response curves were generated and the IC50 value was extrapolated by using the E-WorkBook Suite (ID Business Solutions Ltd., Guildford, UK). The IC50 was defined as the compound concentration (or conditioned media log dilution) at which HBsAg secretion was reduced by 50% compared to the no drug control.
The compounds according to formula I were tested for their capacity to inhibit HBsAg as described herein.
For `CC1c2cnc(-c3ncccn3)nc2CCN1c1cc(F)cc(N2CC(C(=O)O)C(C)(C)C2)n1` (stereo not shown) [Example 92, 1-[4-fluoro-6-(5-methyl-2-pyrimidin-2-yl-7,8-dihydro-5H-pyrido[4,3-d]pyrimidin-6-yl)-2-pyridyl]-4,4-dimethyl-pyrrolidine-3-carboxylic acid], the IC50 was found to be 139 nM.

`CC1c2cnc(-c3ncccn3)nc2CCN1c1cc(F)cc(N2CCC(NS(C)(=O)=O)CC2)n1` (stereo not shown) [Example 89, N-[1-[4-fluoro-6-(5-methyl-2-pyrimidin-2-yl-7,8-dihydro-5H-pyrido[4,3-d]pyrimidin-6-yl)-2-pyridyl]-4-piperidyl]methanesulfonamide] registered an IC50 of 12 nM. Against the preceding compound, the IC50 is about 12-fold lower. `CC1COCCN1c1cc(F)nc(N2CCc3nc(-c4ncccn4)ncc3C2C)c1` (stereo not shown) [Example 40, 4-[2-fluoro-6-(5-methyl-2-pyrimidin-2-yl-7,8-dihydro-5H-pyrido[4,3-d]pyrimidin-6-yl)-4-pyridyl]-3-methyl-morpholine] came in with an IC50 of 10 nM. In the case of `CCC1CN(c2cc(F)nc(N3CCc4nc(-c5ncccn5)ncc4C3C)c2)CCO1` (stereo not shown) [Example 6, 2-ethyl-4-[2-fluoro-6-(5-methyl-2-pyrimidin-2-yl-7,8-dihydro-5H-pyrido[4,3-d]pyrimidin-6-yl)-4-pyridyl]morpholine] it was 9 nM; in that of `CC1c2cnc(-c3ncccn3)nc2CCN1c1cc(N2CCCC2C(=O)O)cc(F)n1` (stereo not shown) [Example 32, 1-[2-fluoro-6-(5-methyl-2-pyrimidin-2-yl-7,8-dihydro-5H-pyrido[4,3-d]pyrimidin-6-yl)-4-pyridyl]pyrrolidine-2-carboxylic acid], 391 nM; in that of `COCC1CCCN1c1cc(F)nc(N2CCc3nc(-c4ncccn4)ncc3C2C)c1` (stereo not shown) [Example 34, 6-[6-fluoro-4-[2-(methoxymethyl)pyrrolidin-1-yl]-2-pyridyl]-5-methyl-2-pyrimidin-2-yl-7,8-dihydro-5H-pyrido[4,3-d]pyrimidine], 54 nM.

Compound `CC1c2cnc(-c3ncccn3)nc2CCN1c1cc(N2CCC2)cc(F)n1` (stereo not shown) [Example 110, 6-[4-(azetidin-1-yl)-6-fluoro-2-pyridyl]-5-methyl-2-pyrimidin-2-yl-7,8-dihydro-5H-pyrido[4,3-d]pyrimidine] yielded a half-maximal inhibitory concentration (IC50) of 8 nM. The same measure for `CC1c2cnc(-c3ncccn3)nc2CCN1c1cc(F)cc(N2CC(F)(F)C2)n1` (stereo not shown) [Example 125, 6-[6-(3,3-difluoroazetidin-1-yl)-4-fluoro-2-pyridyl]-5-methyl-2-pyrimidin-2-yl-7,8-dihydro-5H-pyrido[4,3-d]pyrimidine]: 38 nM; for `CC1c2cnc(-c3ncccn3)nc2CCN1c1cc(N2CC(C#N)C2)cc(F)n1` (stereo not shown) [Example 144, 1-[2-Fluoro-6-(5-methyl-2-pyrimidin-2-yl-7,8-dihydro-5H-pyrido[4,3-d]pyrimidin-6-yl)-4-pyridyl]azetidine-3-carbonitrile]: 28 nM; for `CC1c2cnc(-c3ncccn3)nc2CCN1c1cc(N2CCCC2=O)cc(F)n1` (stereo not shown) [Example 113, 1-[2-Fluoro-6-(5-methyl-2-pyrimidin-2-yl-7,8-dihydro-5H-pyrido[4,3-d]pyrimidin-6-yl)-4-pyridyl]pyrrolidin-2-one]: 4 nM. In the case of `COC1CCN(c2cc(F)nc(N3CCc4nc(-c5ccccn5)ncc4C3C)c2)C1` (stereo not shown) [Example 83, 6-[6-fluoro-4-(3-methoxypyrrolidin-1-yl)-2-pyridyl]-5-methyl-2-(2-pyridyl)-7,8-dihydro-5H-pyrido[4,3-d]pyrimidine] it was 20 nM. `CC1c2cnc(-c3ncccn3)nc2CCN1c1cc(NC2CNC2)cc(F)n1` (stereo not shown) [Example 121, N-(azetidin-3-yl)-2-fluoro-6-(5-methyl-2-pyrimidin-2-yl-7,8-dihydro-5H-pyrido[4,3-d]pyrimidin-6-yl)pyridin-4-amine] had an IC50 of 496 nM. The same measure for `CC1c2cnc(-c3ncccn3)nc2CCN1c1cc(N2CCC(C(N)=O)C2)cc(F)n1` (stereo not shown) [Example 44, 1-[2-fluoro-6-(5-methyl-2-pyrimidin-2-yl-7,8-dihydro-5H-pyrido[4,3-d]pyrimidin-6-yl)-4-pyridyl]pyrrolidine-3-carboxamide]: 54 nM. The same measure for `CC1c2cnc(-c3ccccn3)nc2CCN1c1cc(N2CCC(C(=O)NS(C)(=O)=O)C2)cc(F)n1` (stereo not shown) [Example 86, 1-[2-fluoro-6-[5-methyl-2-(2-pyridyl)-7,8-dihydro-5H-pyrido[4,3-d]pyrimidin-6-yl]-4-pyridyl]-N-methylsulfonyl-pyrrolidine-3-carboxamide]: 1240 nM.

`CC1C(=O)NCCN1c1cc(F)cc(N2CCc3nc(-c4ncccn4)ncc3C2C)n1` (stereo not shown) [Example 116, 4-[4-fluoro-6-(5-methyl-2-pyrimidin-2-yl-7,8-dihydro-5H-pyrido[4,3-d]pyrimidin-6-yl)-2-pyridyl]-3-methyl-piperazin-2-one] showed an IC50 of 103 nM. This IC50 is about 12-fold lower than that of the compound before.

`CC1c2cnc(-c3ncccn3)nc2CCN1c1cc(N2CCN(S(C)(=O)=O)C(C)(C)C2)cc(F)n1` (stereo not shown) [Example 100, 6-[4-(3,3-dimethyl-4-methylsulfonyl-piperazin-1-yl)-6-fluoro-2-pyridyl]-5-methyl-2-pyrimidin-2-yl-7,8-dihydro-5H-pyrido[4,3-d]pyrimidine]: the IC50 was 13 nM. In turn, `CC1c2cnc(-c3ncccn3)nc2CCN1c1cc(F)cc(N2CCN(S(C)(=O)=O)C(C)C2)n1` (stereo not shown) [Example 105, 6-[4-fluoro-6-(3-methyl-4-methylsulfonyl-piperazin-1-yl)-2-pyridyl]-5-methyl-2-pyrimidin-2-yl-7,8-dihydro-5H-pyrido[4,3-d]pyrimidine] displayed an IC50 of 23 nM.

`CC1c2cnc(-c3ccccn3)nc2CCN1c1cc(N2CCC(C(=O)O)C2)cc(F)n1` (stereo not shown) [Example 68, 1-[2-fluoro-6-[5-methyl-2-(2-pyridyl)-7,8-dihydro-5H-pyrido[4,3-d]pyrimidin-6-yl]-4-pyridyl]pyrrolidine-3-carboxylic acid] had an IC50 of 215 nM. This IC50 lies about 9.3-fold higher than the previous one. Turning to `CC1c2cnc(-c3ncccn3)nc2CCN1c1cc(N2CCS(=O)(=O)CC2)cc(F)n1` (stereo not shown) [Example 146, 4-[2-Fluoro-6-(5-methyl-2-pyrimidin-2-yl-7,8-dihydro-5H-pyrido[4,3-d]pyrimidin-6-yl)-4-pyridyl]-1,4-thiazinane1,1-dioxide], the 50% inhibitory concentration (IC50) turned out to be 38 nM. In the case of `CC1CCN(c2cc(F)nc(N3CCc4nc(-c5ncccn5)ncc4C3C)c2)C1` (stereo not shown) [Example 18, 6-[6-fluoro-4-(3-methylpyrrolidin-1-yl)-2-pyridyl]-5-methyl-2-pyrimidin-2-yl-7,8-dihydro-5H-pyrido[4,3-d]pyrimidine] it was 3 nM; in that of `CC1c2cnc(-c3ccccn3)nc2CCN1c1cc(N2CCC(C(N)=O)CC2)cc(F)n1` (stereo not shown) [Example 73, 1-[2-fluoro-6-[5-methyl-2-(2-pyridyl)-7,8-dihydro-5H-pyrido[4,3-d]pyrimidin-6-yl]-4-pyridyl]piperidine-4-carboxamide], 10 nM; in that of `CC1c2cnc(-c3ncccn3)nc2CCN1c1cc(N2CC3(COC3)C2)cc(F)n1` (stereo not shown) [Example 130, 6-[2-fluoro-6-(5-methyl-2-pyrimidin-2-yl-7,8-dihydro-5H-pyrido[4,3-d]pyrimidin-6-yl)-4-pyridyl]-2-oxa-6-azaspiro[3.3]heptane], 12 nM. In the case of `CC1c2cnc(-c3ccccn3)nc2CCN1c1cc(NCC(F)F)cc(F)n1` (stereo not shown) [Example 79] it was 71 nM; in that of `CCS(=O)(=O)N1CCN(c2cc(F)cc(N3CCc4nc(-c5ncccn5)ncc4C3C)n2)CC1` (stereo not shown) [Example 91, 6-[6-(4-ethylsulfonylpiperazin-1-yl)-4-fluoro-2-pyridyl]-5-methyl-2-pyrimidin-2-yl-7,8-dihydro-5H-pyrido[4,3-d]pyrimidine], 12 nM.

Take `CC(=O)N1CCN(c2cc(F)nc(N3CCc4nc(-c5ncccn5)ncc4C3C)c2)C(=O)C1` (stereo not shown) [Example 127, 4-Acetyl-1-[2-fluoro-6-(5-methyl-2-pyrimidin-2-yl-7,8-dihydro-5H-pyrido[4,3-d]pyrimidin-6-yl)-4-pyridyl]piperazin-2-one]: the IC50 turned out to be 494 nM. This IC50 is about 41-fold higher than that of the compound before. `CC1c2cnc(-c3ncccn3)nc2CCN1c1cc(N(C)CCCCC(N)=O)cc(F)n1` (stereo not shown) [Example 141, 5-[[2-fluoro-6-(5-methyl-2-pyrimidin-2-yl-7,8-dihydro-5H-pyrido[4,3-d]pyrimidin-6-yl)-4-pyridyl]-methyl-amino]pentanamide] displayed an IC50 of 43 nM. `CC1c2cnc(-c3ncccn3)nc2CCN1c1cc(F)cc(N(C)CCCCC(N)=O)n1` (stereo not shown) [Example 142, 5-[[4-fluoro-6-(5-methyl-2-pyrimidin-2-yl-7,8-dihydro-5H-pyrido[4,3-d]pyrimidin-6-yl)-2-pyridyl]-methyl-amino]pentanamide]: half-maximal inhibition (IC50) required 25 nM. The same measure for `CC1c2cnc(-c3ncccn3)nc2CCN1c1cc(F)nc(N2CCN(S(C)(=O)=O)CC2)c1` (stereo not shown) [Example 107, 6-[2-Fluoro-6-(4-methylsulfonylpiperazin-1-yl)-4-pyridyl]-5-methyl-2-pyrimidin-2-yl-7,8-dihydro-5H-pyrido[4,3-d]pyrimidine]: 10 nM.
